Drawing on PubChem BioAssay (NCI), this text covers TGI and GI50 for 14 compounds.

Each structure is given as a SMILES string.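 In this assay, cells in 96-well plates receive the compound at five concentrations for 48 hours. Endpoints are linearly interpolated between the surrounding concentrations. GI50: concentration for 50% inhibition of growth. Definition used: TGI = concentration required for complete inhibition of growth.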 A value given as a limit tells only on which side of the number the result lay.

Some test systems named below: BT-549 breast; SN12C renal; T-47D breast; U251 CNS; KM12 colon; SK-OV-3 ovarian; CAKI-1 renal; SK-MEL-5 melanoma; HOP-62 NSCLC; SR leukemia.
Test in all cases: growth of human tumour cells (NCI), 48 h

On to `Oc1ccc(Cl)cc1C1=Nn2c(COc3ccc4c(c3)CCCC4)nnc2SC1`, for which the TGI in the test with BT-549 breast came to 34.6 µM; with SN12C renal, 19.9 µM; in the test with T-47D breast, 34.3 µM; in the test on U251 CNS it was 35.3 µM; in the test on KM12 colon it was 29.8 µM; in the test on SK-OV-3 ovarian, 42.4 µM. The TGI with CAKI-1 renal is 49.6 µM; in the test on SK-MEL-5 melanoma it was 19 µM; with HOP-62 NSCLC it was 27.5 µM.
On to `CCOC(=O)/C=C/C1=C(Br)[C@@]2(C)CC[C@@H]3c4ccc(O)cc4CC[C@H]3[C@@H]2C1`, for which the TGI in the test with BT-549 breast turned out to be 27.3 µM; in the test with SN12C renal it was 26.5 µM; in the test on T-47D breast it was 16.5 µM; in the test with U251 CNS, 30.3 µM; in the test on KM12 colon, 29.7 µM; in the test on SK-OV-3 ovarian it was 28.7 µM. Moreover, the TGI is 18.5 µM in the test on SR leukemia, 30 µM in the test with CAKI-1 renal, 26.8 µM in the test with SK-MEL-5 melanoma and 27.5 µM with HOP-62 NSCLC.
As to `CN(CCc1ccccn1)c1ccc2c(c1)Cc1ccccc1-2`, the TGI in the test on BT-549 breast is 46.8 µM; in the test with SN12C renal, more than 100 µM; in the test on T-47D breast, 92.5 µM; in the test on U251 CNS, 22.6 µM; in the test on KM12 colon, 37.7 µM; with SK-OV-3 ovarian it was 68.6 µM. The TGI in the test on CAKI-1 renal is more than 100 µM; in the test with SK-MEL-5 melanoma it was 31.3 µM; in the test on HOP-62 NSCLC it was 44.6 µM.
As for `Clc1cccc(/C=c2\nc(-c3ccccc3)n3c2nc2ccccc23)c1`, the TGI with BT-549 breast, with SN12C renal, in the test with U251 CNS, in the test with KM12 colon, in the test with SK-OV-3 ovarian and in the test with SR leukemia was more than 100 µM in each case. The TGI in the test on CAKI-1 renal, in the test on SK-MEL-5 melanoma and in the test on HOP-62 NSCLC was more than 100 µM in each case.
For the compound `Cc1c2ccccc2cc2cccc[n+]12`, the TGI in the test on BT-549 breast is more than 100 µM; in the test on SN12C renal it was more than 100 µM; in the test with KM12 colon, 53 µM; in the test with SR leukemia, more than 100 µM; in the test on SK-MEL-5 melanoma it was 92.3 µM; in the test on HOP-62 NSCLC it was more than 100 µM.
With `CCCCSCCC(N)P(=O)(O)O` (stereo unspecified), the TGI in the test with SN12C renal, with T-47D breast, with U251 CNS, with SK-OV-3 ovarian, in the test on SR leukemia and in the test with CAKI-1 renal was more than 100 µM each time. Also, the TGI in the test with SK-MEL-5 melanoma and in the test with HOP-62 NSCLC was more than 100 µM in each case.
On to `Nc1ccc(Cc2ccc(N)c(C(=O)O)c2)cc1C(=O)O`, for which the TGI in the test on BT-549 breast, in the test on SN12C renal, in the test with T-47D breast, with U251 CNS, in the test with KM12 colon and with SK-OV-3 ovarian was more than 100 µM each time. Also, the TGI with SR leukemia, in the test with CAKI-1 renal, in the test with SK-MEL-5 melanoma and in the test on HOP-62 NSCLC was more than 100 µM each time.
As for `NC(N)=N/N=C/c1c(-c2cccs2)nc2n1CCS2`, the GI50 with BT-549 breast was 21.4 µM; with SN12C renal it was 12.5 µM; in the test with T-47D breast it was 17.5 µM; in the test with U251 CNS, 16.6 µM; in the test with KM12 colon, 14.2 µM; with SK-OV-3 ovarian, more than 100 µM. Also, the GI50 is 17.6 µM with SR leukemia and 15.6 µM with SK-MEL-5 melanoma. The TGI in the test on BT-549 breast was 44.8 µM; with SN12C renal, 32.4 µM; with T-47D breast it was 37.3 µM; in the test with U251 CNS, 30.1 µM; in the test with KM12 colon, 29.2 µM; in the test on SK-OV-3 ovarian, more than 100 µM. The figures for the TGI with SR leukemia and in the test with SK-MEL-5 melanoma were 34 µM and 29.1 µM, respectively.
`CN(C)c1ccc(/C=C2\C[C@H]3[C@@H]4CC=C5C[C@@H](O)CC[C@]5(C)[C@H]4CC[C@]3(C)[C@H]2O)cc1`: the TGI with BT-549 breast was 43.3 µM; in the test with SN12C renal, 40 µM; in the test on T-47D breast, 76.6 µM; with U251 CNS, 22.6 µM; in the test with KM12 colon, more than 100 µM; with SK-OV-3 ovarian it was 88.1 µM. Also, the TGI with SR leukemia was more than 100 µM; in the test on SK-MEL-5 melanoma it was 34.3 µM; in the test with HOP-62 NSCLC it was more than 100 µM.
For `COc1ccc2c3c([nH]c2c1)[C@H](C=C(C)C)N1C(=O)[C@@H]2CCCN2C(=O)[C@@H]1C3`, the TGI in the test on BT-549 breast is more than 100 µM; with SN12C renal it was more than 100 µM; with T-47D breast it was more than 100 µM; with U251 CNS it was more than 100 µM; in the test with KM12 colon, more than 100 µM; in the test with SK-OV-3 ovarian, 95.9 µM. Moreover, the TGI with SR leukemia, with CAKI-1 renal and with HOP-62 NSCLC was more than 100 µM in each case.
On to `C#C[C@]1(O)[C@@H](CO)O[C@@H](n2ccc(=O)[nH]c2=O)[C@@H]1O`, for which the TGI is 1.9 µM with T-47D breast; more than 100 µM in the test with U251 CNS; more than 100 µM in the test with KM12 colon; more than 100 µM in the test on SK-OV-3 ovarian; more than 100 µM in the test on SR leukemia; 13 µM in the test with SK-MEL-5 melanoma. In the test on HOP-62 NSCLC, this compound returned a TGI of 1.05 µM.
Turning to `OC1CCSc2ccccc21` (stereo unspecified), the TGI in the test with SN12C renal, in the test on U251 CNS, in the test on KM12 colon, in the test on SK-OV-3 ovarian, with SR leukemia and in the test with CAKI-1 renal was more than 100 µM throughout. In addition, the TGI in the test with SK-MEL-5 melanoma and in the test on HOP-62 NSCLC was more than 100 µM each time.
On to `O=S(C(c1ccccc1)=P(c1ccccc1)(c1ccccc1)c1ccccc1)c1ccc(Cl)cc1` (stereo unspecified), for which the TGI was more than 100 µM in the test with T-47D breast; more than 100 µM in the test on U251 CNS; 57.2 µM in the test on KM12 colon; 50.6 µM in the test with SK-OV-3 ovarian; more than 100 µM in the test with SR leukemia; more than 100 µM in the test with CAKI-1 renal. Also, the TGI was found to be 27 µM in the test on SK-MEL-5 melanoma and 64.6 µM with HOP-62 NSCLC.
With `Nc1csc(-c2scc3c2OCCO3)c1N`, the TGI in the test on BT-549 breast was 50.2 µM; in the test on SN12C renal it was 37.4 µM; with U251 CNS, 29.3 µM; in the test with KM12 colon, 56.5 µM; with SR leukemia, more than 100 µM; in the test on CAKI-1 renal, more than 100 µM. In addition, the TGI worked out at 35.4 µM in the test with SK-MEL-5 melanoma and 42.6 µM in the test with HOP-62 NSCLC.
